Results reported in patent US20070054926A1 (priority 2003, published 2007).
Read-outs that look alike come from different tables or passages of the source.

System: Phytophthora infestans
Format: in vivo
Conditions: individual active compound, protective, assessed 6 days after infection

Row | SMILES | Efficacy in % of the untreated control (16 ppm in the spray liquor) [%] | Efficacy in % of the untreated control (4 ppm in the spray liquor) [%] | Efficacy in % of the untreated control (63 ppm in the spray liquor) [%]
1 | Fc1ccc([C@]2(Cn3cncn3)O[C@H]2c2ccccc2Cl)cc1 (racemic) [compound II, (2RS,3SR)-1-[3-(2-chlorophenyl)-2,3-epoxy-2-(4-fluorophenyl)-propyl]-1H-1,2,4-triazole] | 10 | – | –
2 | CC1CCN(c2c(-c3c(F)cc(F)cc3F)c(Cl)nc3ncnn23)CC1 [compound I, 5-chloro-7-(4-methylpiperidin-1-yl)-6-(2,4,6-trifluorophenyl)-[1,2,4]triazolo[1,5-a]pyrimidine] | 10 | 0 | 10
3 | CC1CCN(c2c(-c3c(F)cccc3Cl)c(Cl)nc3ncnn23)CC1 [A] | 0 | 0 | 0
4 | C[C@H](Nc1c(-c2c(F)cc(F)cc2F)c(Cl)nc2ncnn12)C(F)(F)F [B] | 0 | 0 | 10
